# According to US9949479B2 (priority 2015, dated 2018):
# “And” between values parts separate entries of the source, which are not always exact repeats. Equal values may be shown once. Read-outs that look alike come from different tables or passages of the source.
# What was measured:
# rust [1] = type: in vivo
# powdery mildew [2] = type: in vivo
# wheat scab [3] = type: in vivo, Fusarium spp.
# leaf blight [4] = type: in vivo
# rust [5] = type: in vivo; settings: dose as in E154
# powdery mildew [6] = type: in vivo; settings: dose as in E154
# powdery mildew [7] = type: in vivo; remark: listed apart in the source
# rust [8] = type: in vivo; settings: dose as in E145
# wheat scab [9] = type: in vivo, Fusarium spp.; settings: Serial 6: preparation 100 g/mu; jinggangmycin 0, metconazole 20 g ai./mu
# [10] = type: in vivo, wheat; settings: dose as in E162
# [11] = type: in vivo, barley; settings: dose as in E154
# rust [12] = type: in vivo; remark: listed apart in the source
# rust [13] = type: in vivo; settings: Serial 6: preparation 100 g/mu; jinggangmycin 0, metconazole 20 g ai./mu
# powdery mildew [14] = type: in vivo; settings: dose as in E145
# [15] = type: in vivo, wheat
# rust [16] = type: in vivo; settings: Serial 6: preparation 100; jinggangmycin 0, metconazole 20 g ai./mu
# [17] = test system: DON toxin biosynthesis of carbendazim-resistant fusarium asiaticum; assay: microbe, parasite or virus in culture; type: cell-based
# leaf blight [18] = type: in vivo; remark: listed apart in the source
# rust [19] = type: in vivo; remark: listed apart in the source
# leaf blight [20] = type: in vivo; settings: Serial 6: preparation 100; jinggangmycin 0, metconazole 20 g ai./mu
# [21] = design: species or system wheat; settings: in vivo
# powdery mildew fungus = type: in vivo; settings: seed treatment; dose as in E133
# leaf blight [22] = type: in vivo; settings: Serial 6: preparation 100 g/mu; jinggangmycin 0, metconazole 20 g ai./mu
# wheat scab [23] = type: in vivo, Fusarium spp.; remark: listed apart in the source
# [24] = type: in vivo, wheat; remark: listed apart in the source
# leaf blight [25] = type: in vivo; settings: dose as in E154
# [26] = design: species or system wheat; settings: in vivo; remark: listed apart in the source
# powdery mildew [27] = type: in vivo; settings: Serial 6: preparation 100 g/mu; jinggangmycin 0, metconazole 20 g ai./mu
# Fusarium graminearum = assay: microbe, parasite or virus in culture; type: cell-based
# leaf rust fungus = type: in vivo; settings: seed treatment; dose as in E133
# [28] = Serial 8: preparation 50 g/mu, metconazole 10 g ai./mu alone
# [29] = Serial 9: preparation 37.5 g/mu, metconazole 7.5 g ai./mu alone
# [30] = Serial 10: preparation 15 g/mu, metconazole 3 g ai./mu alone
# [31] = Serial 9: preparation 100 g/mu, metconazole 20 g ai./mu alone
# [32] = Serial 10: preparation 80 g/mu, metconazole 16 g ai./mu alone
# [33] = Serial 11: preparation 40 g/mu, metconazole 8 g ai./mu alone
# [34] = Serial 12: preparation 20 g/mu, metconazole 4 g ai./mu alone
# [35] = Serial 21: metconazole 20 g ai./mu alone
# [36] = Serial 22: metconazole 18 g ai./mu alone
# [37] = Serial 23: metconazole 16 g ai./mu alone
# [38] = Serial 24: metconazole 10 g ai./mu alone
# [39] = Serial 25: metconazole 9 g ai./mu alone
# [40] = Serial 26: metconazole 8 g ai./mu alone
# [41] = Serial 27: metconazole 6 g ai./mu alone
# [42] = Serial 28: metconazole 3 g ai./mu alone
# [43] = Serial 10: preparation 30 g/mu, metconazole 6 g ai./mu alone
# [44] = Serial 11: preparation 22.5 g/mu, metconazole 4.5 g ai./mu alone
# [45] = Serial 12: preparation 15 g/mu, metconazole 3 g ai./mu alone
# [46] = Fusarium graminearum, read-out: Growth Inhibition Rate F.g
structure (smiles),measurement,setting,value
CC1(C)CCC(Cc2ccc(Cl)cc2)C1(O)Cn1cncn1 (centres unmarked) [Metconazole],Disease Index Prevention Effect % Rust,rust [1]; [28],84.4%
same,Disease Index Prevention Effect % Rust,rust [1]; [29],77.3%
same,Disease Index Prevention Effect % Rust,rust [1]; [30],70.6%
same,Disease Index Prevention Effect % Powdery Mildew,powdery mildew [2]; [28],83.2%
same,Disease Index Prevention Effect % Powdery Mildew,powdery mildew [2]; [30],69.2%
same,Disease Index Prevention Effect % Head Blight,wheat scab [3]; [31],78.2%
same,Disease Index Prevention Effect % Head Blight,wheat scab [3]; [32],71.2%
same,Disease Index Prevention Effect % Head Blight,wheat scab [3]; [33],67.1%
same,Disease Index Prevention Effect % Head Blight,wheat scab [3]; [34],52.0%
same,Disease Index Prevention Effect % Leaf Blight,leaf blight [4]; [28],72.8%
same,Disease Index Prevention Effect % Leaf Blight,leaf blight [4]; [29],70.6%
same,Disease Index Prevention Effect % Leaf Blight,leaf blight [4]; [30],68.3%
same,Disease Index Prevention Effect % Rust,rust [5],63.0% and 68.2% and 76.1% and 88.2%
same,Disease Index Prevention Effect % Powdery Mildew,powdery mildew [6],52.6% and 65.3% and 71.8% and 82.2%
same,Disease Index Prevention Effect % Powdery Mildew,powdery mildew [7]; [31],83.2%
same,Disease Index Prevention Effect % Powdery Mildew,powdery mildew [7]; [32],75.4%
same,Disease Index Prevention Effect % Powdery Mildew,powdery mildew [7]; [33],69.2%
same,Disease Index Prevention Effect % Powdery Mildew,powdery mildew [7]; [34],60.6%
same,Disease Index Prevention Effect % Rust,rust [8],83.8% and 78.4% and 66.7% and 41.9%
same,Disease Index Prevention Effect % Head Blight,wheat scab [9],83.4%
same,Grain Toxin Content,[10],2.01 μg/g of kernels and 2.24 μg/g of kernels and 2.38 μg/g of kernels and 2.94 μg/g of kernels
same,Grain Toxin Content,[11],3.86 mg of DON/Kg of grain and 3.70 mg of DON/Kg of grain and 3.09 mg of DON/Kg of grain and 3.26 mg of DON/Kg of grain
same,Toxin Reduction Percentage %,[11]; vs control,54.7% and 56.6% and 63.8% and 61.8%
same,Disease Index Prevention Effect % Rust,rust [12]; [35],91.2%
same,Disease Index Prevention Effect % Rust,rust [12]; [36],88.4%
same,Disease Index Prevention Effect % Rust,rust [12]; [37],85.6%
same,Disease Index Prevention Effect % Rust,rust [12]; [38],82.1%
same,Disease Index Prevention Effect % Rust,rust [12]; [39],82.4%
same,Disease Index Prevention Effect % Rust,rust [12]; [40],79.4%
same,Disease Index Prevention Effect % Rust,rust [12]; [41],72.6%
same,Disease Index Prevention Effect % Rust,rust [12]; [42],30.2%
same,Disease Index Prevention Effect % Rust,rust [13],100%
same,Disease Index Prevention Effect % Powdery Mildew,powdery mildew [14],78.7% and 74.3% and 70.2% and 48.6%
same,Grain Toxin Content (mg of DON/Kg of grain),[15]; [35],1.11 mg of DON/Kg of grain
same,Rate of Decrease in Toxin Content in Grains (%),[15]; [35],82.8%
same,Grain Toxin Content (mg of DON/Kg of grain),[15]; [36],0.99 mg of DON/Kg of grain
same,Rate of Decrease in Toxin Content in Grains (%),[15]; [36],84.7%
same,Grain Toxin Content (mg of DON/Kg of grain),[15]; [37],1.08 mg of DON/Kg of grain
same,Rate of Decrease in Toxin Content in Grains (%),[15]; [37],83.3%
same,Grain Toxin Content (mg of DON/Kg of grain),[15]; [38],1.34 mg of DON/Kg of grain
same,Rate of Decrease in Toxin Content in Grains (%),[15]; [38],79.3%
same,Grain Toxin Content (mg of DON/Kg of grain),[15]; [39],1.56 mg of DON/Kg of grain
same,Rate of Decrease in Toxin Content in Grains (%),[15]; [39],75.9%
same,Grain Toxin Content (mg of DON/Kg of grain),[15]; [40],1.61 mg of DON/Kg of grain
same,Rate of Decrease in Toxin Content in Grains (%),[15]; [40],75.1%
same,Grain Toxin Content (mg of DON/Kg of grain),[15]; [41],1.89 mg of DON/Kg of grain
same,Rate of Decrease in Toxin Content in Grains (%),[15]; [41],70.7%
same,Grain Toxin Content (mg of DON/Kg of grain),[15]; [42],3.22 mg of DON/Kg of grain
same,Rate of Decrease in Toxin Content in Grains (%),[15]; [42],50.2%
same,Disease Index Prevention Effect % Rust,rust [16],85.0%
same,DON Biosynthesis Inhibition Rate,[17],0.66% and −0.34%
same,Toxin Production Capability,[17],87.42 μgDON/g by dry weight of hyphae and 52.50 μgDON/g by dry weight of hyphae
same,Disease Index Prevention Effect % Leaf Blight,leaf blight [18]; [31],72.8%
same,Disease Index Prevention Effect % Leaf Blight,leaf blight [18]; [32],70.6%
same,Disease Index Prevention Effect % Leaf Blight,leaf blight [18]; [33],68.3%
same,Disease Index Prevention Effect % Leaf Blight,leaf blight [18]; [34],50.8%
same,Disease Index Prevention Effect % Rust,rust [19]; [31],84.4%
same,Disease Index Prevention Effect % Rust,rust [19]; [32],77.3%
same,Disease Index Prevention Effect % Rust,rust [19]; [33],70.6%
same,Disease Index Prevention Effect % Rust,rust [19]; [34],63.8%
same,Disease Index Prevention Effect % Leaf Blight,leaf blight [20],80.6%
same,Thousand Kernel Weight,[21],43.2 g and 42.6 g and 39.8 g
same,Incidence Prevention Effect % Powdery Mildew,powdery mildew fungus,75.0% and 68.5% and 61.0% and 40.0%
same,Disease Index Prevention Effect % Leaf Blight,leaf blight [22],84.6%
same,Disease Index Prevention Effect % Head Blight,wheat scab [23]; [35],75.1%
same,Disease Index Prevention Effect % Head Blight,wheat scab [23]; [36],74.9%
same,Disease Index Prevention Effect % Head Blight,wheat scab [23]; [37],73.2%
same,Disease Index Prevention Effect % Head Blight,wheat scab [23]; [38],70.1%
same,Disease Index Prevention Effect % Head Blight,wheat scab [23]; [39],67.2%
same,Disease Index Prevention Effect % Head Blight,wheat scab [23]; [40],65.1%
same,Disease Index Prevention Effect % Head Blight,wheat scab [23]; [41],54.8%
same,Disease Index Prevention Effect % Head Blight,wheat scab [23]; [42],28.3%
same,Grain Toxin Content mg of DON/kg of grain,[24]; [29],2.01 mg of DON/kg of grain
same,Toxin Reduction Percentage %,[24]; [29],55.5%
same,Grain Toxin Content mg of DON/kg of grain,[24]; [43],2.17 mg of DON/kg of grain
same,Toxin Reduction Percentage %,[24]; [43],52.0%
same,Grain Toxin Content mg of DON/kg of grain,[24]; [44],2.06 mg of DON/kg of grain
same,Toxin Reduction Percentage %,[24]; [44],54.4%
same,Grain Toxin Content mg of DON/kg of grain,[24]; [45],3.12 mg of DON/kg of grain
same,Toxin Reduction Percentage %,[24]; [45],31.0%
same,Disease Index Prevention Effect % Leaf Blight,leaf blight [25],56.2% and 70.4% and 73.7% and 80.0%
same,Thousand Kernel Weight,[26],42.8 g and 41.8 g and 42.0 g and 39.2 g
same,Disease Index Prevention Effect % Powdery Mildew,powdery mildew [27],98.2%
same,ED50,Fusarium graminearum; F.g sensitive strains,0.117 µg/mL
same,inhibition at 0.0625 µg/mL,Fusarium graminearum; [46],30.7%
same,inhibition at 0.125 µg/mL,Fusarium graminearum; [46],58.5%
same,inhibition at 0.25 µg/mL,Fusarium graminearum; [46],75.7%
same,inhibition at 0.5 µg/mL,Fusarium graminearum; [46],89.1%
same,inhibition at 1 µg/mL,Fusarium graminearum; [46],96%
same,inhibition at 0.1 µg/mL,"Fusarium graminearum; Fusarium graminearum, read-out: inhibition rate on the hyphal growth of the head blight fungi",~50%
same,Average Fungal Colony Diameter F.g,"Fusarium graminearum; Metconazole 0.0625 μg/mL, sensitive strains",52.1 mm
same,Average Fungal Colony Diameter F.g,"Fusarium graminearum; Metconazole 0.125 μg/mL, sensitive strains",31.2 mm
same,Average Fungal Colony Diameter F.g,"Fusarium graminearum; Metconazole 0.25 μg/mL, sensitive strains",18.3 mm
same,Average Fungal Colony Diameter F.g,"Fusarium graminearum; Metconazole 0.5 μg/mL, sensitive strains",8.2 mm
same,Average Fungal Colony Diameter F.g,"Fusarium graminearum; Metconazole 1.0 μg/mL, sensitive strains",3.0 mm
same,activity of metconazole relative to carbendazim (ED50),Fusarium graminearum; sensitive strains,about four times
same,activity of metconazole relative to phenamacril (ED50),Fusarium graminearum; sensitive strains,about 1.5 times
same,Incidence Prevention Effect % Rust,leaf rust fungus,85.5% and 82.0% and 71.0% and 54.5%
